Several values for one entry are separate records, joined by “and”; a condition that tells them apart may be missing. Equal values may be shown once. Entries after “also recorded” stand apart in the source; their conditions may differ. Read-outs that look alike come from different tables or passages of the source.
Assays:
[1] = Preliminary assessment of pharmacokinetics in mice; format: in vivo, CD-1 mice
Procedure: Dosing Regimen 9 CD-1 mice, male, weighing 20-26 g, were randomly divided into 3 groups with 3 mice in each group. The test compounds were administered intragastric, intravenously or intraperitoneally according to the following protocol. The mice were fasted for 12 h before the test and drank water freely. Food was consumed uniformly 2 h after administration. [table] The intragastric administration solution was prepared with DMSO/0.5% HPMC(5/95, v/v) to the final concentration. Intravenous and intraperitoneal administration solution was formulated with DMSO/PEG300/EtOH/NaCl(5/40/5/50, v/v/v). The sample of the administration solution was left (50 μL of the solution was mixed with 50 μL of DMSO before and after the administration, respectively) for test. The drug was given according to the above dose, the time of administration was recorded, and 20 μL of blood was taken from the femoral plexus of mice at the above set time points and placed in heparinized tubes. The blood was immediately centrifuged at 11000 rpm for 5 min. 10 μL of plasma was immediately and accurately sucked into a centrifuge tube prefilled with 100 μL of PK-IS solution (prepared with methanol: acetonitrile (1:1,v/v)), well mixed, and freezed at −20° C. for test.

[2] = test system: dextran sodium sulfate (DSS)-induced IBD model; experiment: Pharmacological activity test in DSS-induced IBD model; format: in vivo, mice
Procedure: The mice were randomly divided into […]: normal control group (Control,n=5), model control group (Model,n=11), positive compound BAF312 group (0.3 mg/kg,n=10), low dose group (0.03 mg/kg,n=10), medium dose group (0.3 mg/kg,n=10), high dose group (3 mg/kg, n=10), and each group was administered by gavage in a volume of 5 mL/kg once a day. DSS with an average molecular weight of 36000˜50000 Da was dissolved in drinking water to make 2% DSS solution, and the mice in the modeling group were allowed to drink it freely for 6 days, while the drug administration treatments were carried out simultaneously. The body weight, fecal hardness and occult blood of mice in each group were observed every day, and the scores of each index were summed to obtain the disease activity index of each animal. After 6 days of completion of modeling and drug administration, the modeling reagents were withdrawn for a 1-day remission period, and the mice were sacrificed by dislocation after blood was taken via the posterior ophthalmic plexus. Colon tissue and spleen were measured for length or weighed, part of the colon was fixed in 4% paraformaldehyde, and all tissues and serum were stored at −80° C.

[3] = test system: CCI4-induced liver fibrosis model; experiment: Pharmacological activity test in carbon tetrachloride induced liver fibrosis model; format: in vivo, C57BL/6 mice
Procedure: Male C57BL/6 mice were injected intraperitoneally with 5% CCI4(dissolved in corn oil) at 5 mL/kg twice a week to induce liver fibrosis model. Three weeks after modeling, mice were randomly divided into five groups: model control group (Model, n=12), positive compound FTY720 group (2 mg/kg, n=9), positive compound OCA group (30 mg/kg, n=10), low dose group (3 mg/kg), high dose group (10 mg/kg), FTY720 was administered by intraperitoneal injection and the rest of the groups were administered by oral gavage, once a day. After 5 weeks of administration, the mice were sacrificed by dislocation after blood was taken via the posterior ophthalmic plexus, liver and spleen were taken and weighed. Part of the liver was fixed in 4% paraformaldehyde, and part of the liver and serum were stored at −80° C. 10 mice from the same litter were injected intraperitoneally with the same dose of corn oil throughout the experiment as a systemic control.

For `CC(C)Oc1ccc(-c2nc(-c3ccc(CN4CC(C(=O)O)C4)c4ccccc34)no2)cc1C#N.Cl` [Compound A1, 1-((4-(5-(3-cyano-4-isopropoxyphenyl)-1,2,4-oxadiazol-3-yl)naphthalen-1-yl)methyl) azetidine-3-carboxylic acid hydrochloric acid], the concentration at 2 h ([1]; male, CD-1, mouse, plasma, po, 2 mg/kg, title: oral 2 mg/kg, 2.00 h, individual animals 4-6, read-out: Concentration of A1 Drug in Plasma of Mice) was 49.2 ng/mL, the concentration at 2 h ([1]; male, CD-1, mouse, plasma, po, 2 mg/kg, title: oral 2 mg/kg, 2.00 h, mean, read-out: Concentration of A1 Drug in Plasma of Mice) was 49.8 ng/mL and the concentration at 4 h ([1]; male, CD-1, mouse, plasma, po, 2 mg/kg, title: oral 2 mg/kg, 4.00 h, mean, read-out: Concentration of A1 Drug in Plasma of Mice) was 8.43 ng/mL. It also gave a concentration at 8 h ([1]; male, CD-1, mouse, plasma, po, 2 mg/kg, title: oral 2 mg/kg, 8.00 h, mean, read-out: Concentration of A1 Drug in Plasma of Mice) of 3.97 ng/mL, a concentration at 24 h ([1]; male, CD-1, mouse, plasma, po, 2 mg/kg, title: oral 2 mg/kg, 24.0 h, individual animals 4-6, read-out: Concentration of A1 Drug in Plasma of Mice) of 0.5 ng/mL and a concentration at 24 h ([1]; male, CD-1, mouse, plasma, po, 2 mg/kg, title: oral 2 mg/kg, 24.0 h, mean, read-out: Concentration of A1 Drug in Plasma of Mice) of 0.6 ng/mL. The “Concentration of A1 Drug in Plasma of Mice” value (shortened to “Concentration of A1 Drug”) ([1]; title: intraperitoneal 20 mg/kg, 0.25 h, individual animals 1-3) was 1095 ng/mL and 1070 ng/mL and 3041 ng/mL, the “Concentration of A1 Drug” value ([1]; title: intraperitoneal 20 mg/kg, 0.50 h, individual animals 1-3) was 1574 ng/mL and 1388 ng/mL and 3514 ng/mL and the “Concentration of A1 Drug” value ([1]; title: intraperitoneal 20 mg/kg, 1.00 h, individual animals 1-3) was 1914 ng/mL and 1843 ng/mL and 4055 ng/mL. For the same compound, the “Concentration of A1 Drug” value ([1]; title: intraperitoneal 20 mg/kg, 2.00 h, individual animals 1-3) was 571 ng/mL and 1318 ng/mL and 1662 ng/mL, the “Concentration of A1 Drug” value ([1]; title: intraperitoneal 20 mg/kg, 4.00 h, individual animals 1-3) was 146 ng/mL and 215 ng/mL and 65.0 ng/mL and the “Concentration of A1 Drug” value ([1]; title: intraperitoneal 20 mg/kg, 8.00 h, individual animals 1-3) was 25.8 ng/mL and 36.4 ng/mL and 11.5 ng/mL. The “Concentration of A1 Drug” value ([1]; title: intraperitoneal 20 mg/kg, 24.0 h, individual animals 1-3) was 3.80 ng/mL, the “Concentration of A1 Drug” value ([1]; title: oral 2 mg/kg, 0.05 h, individual animals 4-6, 2 mg/kg) was 1521 ng/mL and 2513 ng/mL and the “Concentration of A1 Drug” value ([1]; title: oral 2 mg/kg, 0.25 h, individual animals 4-6, 2 mg/kg) was 572 ng/mL and 1021 ng/mL. For the same compound, the “Concentration of A1 Drug” value ([1]; title: oral 2 mg/kg, 0.75 h, individual animals 4-6, 2 mg/kg) was 113 ng/mL and 216 ng/mL, the “Concentration of A1 Drug” value ([1]; title: oral 2 mg/kg, 2.00 h, individual animals 4-6, 2 mg/kg) was 39.5 ng/mL and 60.6 ng/mL and the “Concentration of A1 Drug” value ([1]; title: oral 2 mg/kg, 4.00 h, individual animals 4-6, 2 mg/kg) was 8.60 ng/mL and 11.5 ng/mL and 5.20 ng/mL. The “Concentration of A1 Drug” value ([1]; title: oral 2 mg/kg, 8.00 h, individual animals 4-6, 2 mg/kg) was 8.70 ng/mL and 2.10 ng/mL and 1.10 ng/mL, the “Concentration of A1 Drug” value ([1]; title: oral 2 mg/kg, 24.0 h, individual animals 4-6, 2 mg/kg) was 0.800 ng/mL and 0.500 ng/mL and the “impaired crypt and inflammatory infiltration in colon sites” value ([2]; H&E-stained colon sections, high/medium doses (3/0.3 mg/kg)) was “effectively improve”. The “overall effect in the IBD model” value ([2]; concluding statement) was “significant anti-inflammatory as well as pathological ameliorating effects”, the “weight of the spleen” value ([2]; high/medium/low doses) was “without affecting” and the “disease process (weight change, stool consistency, rectal bleeding, disease activity index)” value ([2]; high/medium/low doses (3/0.3/0.03 mg/kg), gavage once a day, to different degrees) was “effective in alleviating; also recorded: alleviated”. The “shorten of colon length” value ([2]; high/medium/low doses (3/0.3/0.03 mg/kg), to different degrees) was “effective in alleviating”, the “hydroxyproline content in the liver” value ([3]; high dose (10 mg/kg), 10 mg/kg) was “significantly alleviated; also recorded: alleviating” and the “mRNA expression of liver fibrosis-related genes (Tgfb, Col1a1)” value ([3]; high dose (10 mg/kg), 10 mg/kg) was “significantly downregulated; also recorded: downregulates”. For the same compound, the “liver and spleen organ weights” value ([3]; oral gavage once a day, 5 weeks) was “without affecting”, the “ALT levels in serum” value ([3]; oral gavage once a day, 5 weeks, 3 and 10 mg/kg groups) was “significantly reduced” and the “collagen deposition in the liver” value ([3]; pathological section analysis) was “significantly reduced”.

Source: patent US20240208954A1, “OXADIAZOLE COMPOUND, PREPARATION METHOD THEREFOR, PHARMACEUTICAL COMPOSITION AND USE THEREOF” (SHANGHAI INSTITUTE OF MATERIA MEDICA, CHINESE ACADEMY OF …, priority 2020, published 2024)
